Columns and labels:
[1] = target: VHL co-expressed with Elongins B and C (Homo sapiens (Human), UniProt P40337); assay: Surface Plasmon Resonance Assay; type: binding; details: SPR measured VHL affinity; geometric mean where more than one measurement
Summary of the method: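 Binding kinetics by SPR at 20 °C: compound concentration series run from low to high at 80 μL/min over VHL–Elongin B/C complex, immobilized via avidin tag on SA chip. Buffer was HEPES pH 7.2 with 150 mM NaCl, TCEP, Tween 20, PEG3350 and 2% DMSO; association/dissociation times adjusted per compound.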

[2] = target: NanoLuc VHL fusion protein (Homo sapiens (Human), UniProt P40337); assay: VHL HEK-293 BRET Assay (NanoBRET Target Engagement); type: cell-based; details: geometric mean where more than one measurement
NanoLuc VHL fusion protein, sequence (P40337 whole entry, looked up, the tested form may be a part): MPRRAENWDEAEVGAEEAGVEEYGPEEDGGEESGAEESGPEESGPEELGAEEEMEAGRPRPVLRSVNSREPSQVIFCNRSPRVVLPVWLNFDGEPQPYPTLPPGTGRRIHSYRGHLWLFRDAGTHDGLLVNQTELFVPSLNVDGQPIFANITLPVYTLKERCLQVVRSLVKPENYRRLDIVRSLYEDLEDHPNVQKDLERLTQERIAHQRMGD
NanoLuc VHL fusion protein, sequence (Q15370 whole entry partner, looked up, the tested form may be a part): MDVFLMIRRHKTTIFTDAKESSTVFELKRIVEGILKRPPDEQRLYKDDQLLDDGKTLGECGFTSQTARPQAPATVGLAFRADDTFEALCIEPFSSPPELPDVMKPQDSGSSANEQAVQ
NanoLuc VHL fusion protein, sequence (Q15369 whole entry partner, looked up, the tested form may be a part): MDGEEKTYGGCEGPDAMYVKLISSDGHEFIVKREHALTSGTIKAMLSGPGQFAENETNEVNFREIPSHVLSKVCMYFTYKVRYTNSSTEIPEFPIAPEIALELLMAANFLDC
Method: The VHL NanoBRET™ Target Engagement Assay analyzes the apparent affinity of test compounds for VHL in cells by competitive displacement of a VHL NanoBRET™ tracer reversibly bound to a NanoLuc® VHL fusion protein stably expressed in the cells. Test compounds were transferred to the assay plate (384 Well White Non-Binding Corning Assay Plates (Corning-3574)) using an Echo 555 Liquid Handler (Labcyte) in 2.5 nL increments and, as appropriate, intermediate stock concentrations of compounds, in order to prepare a titration series. 50 nL of control compound (10 mM; parental unlabeled VHL antagonist; see structure below) and 50 nL of DMSO (negative control) were dispensed into the appropriate control wells. DMSO was backfilled to a final volume of 50 nL as required. 50 nl per well of 1 mM VHL NanoBRET™ Tracer in DMSO (NanoBRET™ Tracer-PEG2-590 (see structure below)) was transferred into each well using an Echo 555 (ultimately yielding a final concentration of 1 uM). HEK 293 RT VHL-NanoLuc® stable cells were cultured in DMEM High Glucose with Pyruvate, 10% fetal bovine serum, 2 mg/mL of Geneticin Selective Antibiotic (50 mg/ml) and 2 mM HEPES (1 M). Cells were seeded in Opti-MEM (Life Technologies-11058-021), 1.7×10^5 cells/mL, 40 μl per well into the assay plate, centrifuged at 500 rpm for 30 seconds and incubated for 2 hours. Max Signal control wells consisted of DMSO only treated wells. Minimum Signal control wells contained of 10 uM parental unlabeled VHL antagonist (control compound—see structure below). 3× Complete Substrate plus Inhibitor Solution was prepared in Opti-MEM (consists of a 1:166 dilution of NanoBRET™ Nano-Glo® Substrate plus a 1:500 dilution of Extracellular NanoLuc® Inhibitor in Opti-MEM), and 20 ul was dispensed into each well of the 384-well plate and centrifuged at 1000 rpm for 1 minute, then incubated for 2 minutes at room temperature. Background Signal control wells were prepared without tracer for background correction steps. Plates were read using a PerkinElmer Envision Reader (model 2104-0020) equipped with Luminescence option (Mirror: BRET2 Enh (PE Barcode 659), Emission Filter: Omega 610LP (Barcode 504), 2nd Emission Filter: Umbelliferone 460 (Barcode 207), Measurement height: 6.5 mm, Measurement time: 1 s). The raw BRET ratio values were calculated by dividing the acceptor emission value (610 nm) by the donor emission value (460 nm) for each sample. To correct for background, the BRET ratio in the absence of tracer (average of no-tracer control samples) was subtracted from the BRET ratio of each sample. Raw BRET units were converted to milliBRET units (mBU) by multiplying each raw BRET value by 1,000. The normalized NanoBRET™ signal was calculated relative to the Max Signal control wells (DMSO treated control wells) and the Minimum Signal control wells. Percentage inhibition was calculated relative to the Minimum Signal control and Maximum Signal control wells. IC50 values were derived by four parameter curve fitting using the Robust method.

VHL Elongin B/C complex = VHL Elongin B/C complex (Homo sapiens (Human), UniProt P40337); assay: Fluorescence Polarization (FP) VHL Binding Assay; details: VHL binding, FP assay; geometric mean where more than one measurement
VHL Elongin B/C complex, sequence (P40337 whole entry, looked up): as the sequence (P40337 whole entry, looked up, the tested form may be a part) above
VHL Elongin B/C complex, sequence (Q15370 whole entry partner, looked up): as the sequence (Q15370 whole entry partner, looked up, the tested form may be a part) above
VHL Elongin B/C complex, sequence (Q15369 whole entry partner, looked up): as the sequence (Q15369 whole entry partner, looked up, the tested form may be a part) above
Summary of the method: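 Readout is polarization of a TAMRA-coupled VHL ligand (1.67 nM final) displaced from the VHL(E55-D213)/Elongin B/C complex (2.64 nM final) after 1 h incubation at room temperature in pH 8.0 Tris buffer with 1% DMSO. Data normalized to no-VHL and compound-free controls, with compound fluorescence subtracted, and fitted by four-parameter curve for IC50.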

VHL co-expressed with Elongins B and C, sequence (P40337 whole entry, looked up): as the sequence (P40337 whole entry, looked up, the tested form may be a part) above
VHL co-expressed with Elongins B and C, sequence (Q15370 whole entry partner, looked up): as the sequence (Q15370 whole entry partner, looked up, the tested form may be a part) above
VHL co-expressed with Elongins B and C, sequence (Q15369 whole entry partner, looked up): as the sequence (Q15369 whole entry partner, looked up, the tested form may be a part) above

Cc1ncsc1-c1ccc([C@]2(C)NC(C3C[C@@H](O)CN3C(=O)C3N(S(C)(=O)=O)CCC3(C)C)=NC2=O)cc1 (single isomer, unassigned) [Example 125.2]
Kd [1]: ≥ 150 µM | IC50 [2]: 100 µM | IC50 (VHL Elongin B/C complex): ≥ 400 µM

Cc1ncsc1-c1ccc([C@]2(C)NC(C3C[C@@H](O)CN3C(=O)[C@@H]3CCCCN3S(C)(=O)=O)=NC2=O)cc1 (single isomer, unassigned) [Example 122.1]
Kd [1]: ≥ 150 µM | IC50 [2]: 100 µM | IC50 (VHL Elongin B/C complex): ≥ 400 µM

Cc1ncsc1-c1ccc([C@]2(C)NC(C3C[C@@H](O)CN3C(=O)C(c3cn(C)nn3)C(C)C)=NC2=O)cc1 (single isomer, unassigned) [Example 118.3]
Kd [1]: 21.2 µM | IC50 [2]: 100 µM | IC50 (VHL Elongin B/C complex): 150 µM

Cc1cc([C@@H](C(=O)N2C[C@H](O)C[C@H]2C2=NOC(C)(c3ccc(-c4scnc4C)cc3)N2)C(C)C)on1 (single isomer, unassigned) [Example 129.2]
Kd [1]: 57 µM | IC50 [2]: 77.9 µM | IC50 (VHL Elongin B/C complex): 58.4 µM

Cc1cc([C@H](C(=O)N2C[C@H](O)C[C@H]2C2=NOC(C)(C)N2)C(C)C)on1 [Example 126.1, (R)-1-((2S,4R)-2-(5,5-dimethyl-4,5-dihydro-1,2,4-oxadiazol-3-yl)-4-hydroxypyrrolidin-1-yl)-3-methyl-2-(3-methylisoxazol-5-yl)butan-1-one]
Kd [1]: 12.8 µM | IC50 [2]: 45.4 µM | IC50 (VHL Elongin B/C complex): 31.4 µM

Cc1ncsc1-c1ccc([C@]2(C)NC(C3C[C@@H](O)CN3C(=O)C3N(S(C)(=O)=O)CCC3(C)C)=NC2=O)cc1 (single isomer, unassigned) [Example 125.3]
Kd [1]: ≥ 150 µM | IC50 [2]: 100 µM | IC50 (VHL Elongin B/C complex): ≥ 400 µM

Cc1ncsc1-c1ccc([C@]2(C)NC(C3C[C@@H](O)CN3C(=O)C(c3cc(O)no3)C(C)C)=NC2=O)cc1 (single isomer, unassigned) [Example 116.1]
Kd [1]: 5.1 µM | IC50 [2]: 100 µM | IC50 (VHL Elongin B/C complex): 4.35 µM

Cc1cc([C@@H](C(=O)N2C[C@H](O)C[C@H]2C2=NOC(C)(c3ccc(Br)cc3)N2)C(C)C)on1 (mixture of isomers) [Example 113.1, (2S)-1-((2S,4R)-2-(5-(4-Bromophenyl)-5-methyl-4,5-dihydro-1,2,4-oxadiazol-3-yl)-4-hydroxypyrrolidin-1-yl)-3-methyl-2-(3-methylisoxazol-5-yl)butan-1-one and (2R)-1-((2S,4R)-2-(5-(4-Bromophenyl)-5-methyl-4,5-dihydro-1,2,4-oxadiazol-3-yl)-4-hydroxypyrrolidin-1-yl)-3-methyl-2-(3-methylisoxazol-5-yl)butan-1-one]
Kd [1]: 24.1 µM | IC50 [2]: 96.9 µM | IC50 (VHL Elongin B/C complex): 70.6 µM

Cc1cc([C@H](C(=O)N2C[C@H](O)C[C@H]2C2=NO[C@](c3ccccc3)(C(F)(F)F)N2)C(C)C)on1 (mixture of isomers) [Example 114.4, (2S)-1-((2S,4R)-4-Hydroxy-2-(5-phenyl-5-(trifluoromethyl)-4,5-dihydro-1,2,4-oxadiazol-3-yl)pyrrolidin-1-yl)-3-methyl-2-(3-methylisoxazol-5-yl)butan-1-one and (2R)-1-((2S,4R)-4-Hydroxy-2-(5-phenyl-5-(trifluoromethyl)-4,5-dihydro-1,2,4-oxadiazol-3-yl)pyrrolidin-1-yl)-3-methyl-2-(3-methylisoxazol-5-yl)butan-1-one]
Kd [1]: 5.86 µM | IC50 [2]: 59.9 µM | IC50 (VHL Elongin B/C complex): 58.3 µM

Cc1cc([C@H](C(=O)N2C[C@H](O)C[C@H]2C2=NO[C@](C)(c3ccc(Br)cc3)N2)C(C)C)on1 (mixture of isomers) [Example 113.4, (2S)-1-((2S,4R)-2-(5-(4-Bromophenyl)-5-methyl-4,5-dihydro-1,2,4-oxadiazol-3-yl)-4-hydroxypyrrolidin-1-yl)-3-methyl-2-(3-methylisoxazol-5-yl)butan-1-one and (2R)-1-((2S,4R)-2-(5-(4-Bromophenyl)-5-methyl-4,5-dihydro-1,2,4-oxadiazol-3-yl)-4-hydroxypyrrolidin-1-yl)-3-methyl-2-(3-methylisoxazol-5-yl)butan-1-one]
Kd [1]: 3.17 µM | IC50 [2]: 2.92 µM | IC50 (VHL Elongin B/C complex): 2.28 µM

Cc1cc([C@H](C(=O)N2C[C@H](O)C[C@H]2C2=NOC3(CCc4ccccc43)N2)C(C)C)on1 (single isomer, unassigned) [Example 130.3]
Kd [1]: 4.69 µM | IC50 [2]: 16.2 µM | IC50 (VHL Elongin B/C complex): 17.6 µM

Cc1cc(C(C(=O)N2C[C@H](O)CC2C2=NC(C)(C)C(C)(C)N2)C(C)C)on1 (stereo partly drawn) [Example 136.1, 1-((4R)-4-Hydroxy-2-(4,4,5,5-tetramethyl-4,5-dihydro-1H-imidazol-2-yl)pyrrolidin-1-yl)-3-methyl-2-(3-methylisoxazol-5-yl) butan-1-one]
Kd [1]: ≥ 150 µM | IC50 [2]: 77.1 µM | IC50 (VHL Elongin B/C complex): 93.6 µM

Cc1ncsc1-c1ccc([C@]2(C)NC(C3C[C@@H](O)CN3C(=O)C(c3cn(C)nn3)C(C)C)=NC2=O)cc1 (single isomer, unassigned) [Example 118.4]
Kd [1]: 102 µM | IC50 [2]: 100 µM | IC50 (VHL Elongin B/C complex): ≥ 400 µM

Cc1ncsc1-c1ccc([C@]2(C)NC(C3C[C@@H](O)CN3C(=O)C(c3cn(C)nn3)C(C)C)=NC2=O)cc1 (single isomer, unassigned) [Example 118.1]
Kd [1]: 61.5 µM | IC50 [2]: 100 µM | IC50 (VHL Elongin B/C complex): 157 µM

Cc1noc(C(C(=O)N2C[C@H](O)CC2C2=NC(=O)[C@](C)(c3ccc(-c4scnc4C)cc3)N2)C(C)C)n1 (single isomer, unassigned) [Example 117.1]
Kd [1]: 155 µM | IC50 [2]: 100 µM | IC50 (VHL Elongin B/C complex): ≥ 400 µM

CC(=O)N1CCCCC1C(=O)N1C[C@H](O)CC1C1=NC(=O)[C@](C)(c2ccc(-c3scnc3C)cc2)N1 (single isomer, unassigned) [Example 124.1]
Kd [1]: ≥ 150 µM | IC50 [2]: 100 µM | IC50 (VHL Elongin B/C complex): ≥ 400 µM

Cc1cc(C(C(=O)N2C[C@H](O)C[C@H]2C2=NN(CC(F)(F)F)C(C)(C)N2)C(C)C)on1 (single isomer, unassigned) [Example 134.2]
Kd [1]: 57.4 µM | IC50 [2]: 41.3 µM | IC50 (VHL Elongin B/C complex): 48.2 µM

Cc1ncsc1-c1ccc([C@]2(C)NC(C3C[C@@H](O)CN3C(=O)C(c3cnn(C)c3)C(C)C)=NC2=O)cc1 (single isomer, unassigned) [Example 110.1]
Kd [1]: 7.42 µM | IC50 [2]: 28.1 µM | IC50 (VHL Elongin B/C complex): 20.6 µM

CC/C(=C(\c1ccc(O)cc1)c1ccc(OCCN(C)C(=O)CCCOCCOc2cc(C(C(=O)N3C[C@H](O)CC3C3=NC(=O)[C@](C)(c4ccc(-c5scnc5C)cc4)N3)C(C)C)on2)cc1)c1ccccc1 (single isomer, unassigned) [Example 1003.1]
Kd [1]: 67.1 µM | IC50 [2]: ≥ 100 µM | IC50 (VHL Elongin B/C complex): ≥ 400 µM

Cc1cc(C(C(=O)N2C[C@H](O)CC2C2=NC(=O)[C@](C)(c3ccc(-c4scnc4C)cc3)N2)C(C)C)sn1 (single isomer, unassigned) [Example 119.3]
Kd [1]: 17.5 µM | IC50 [2]: 71.1 µM | IC50 (VHL Elongin B/C complex): 72.4 µM

Cc1cc([C@@H](C(=O)N2C[C@H](O)C[C@H]2C2=NOC(C)(c3ccc(-c4scnc4C)cc3)N2)C(C)C)on1 (single isomer, unassigned) [Example 129.1]
Kd [1]: 48.1 µM | IC50 [2]: 100 µM | IC50 (VHL Elongin B/C complex): 79 µM

Cc1cc([C@@H](C(=O)N2C[C@H](O)C[C@H]2C2=NOC3(CCc4ccccc43)N2)C(C)C)on1 (single isomer, unassigned) [Example 130.1]
Kd [1]: 83 µM | IC50 [2]: 100 µM | IC50 (VHL Elongin B/C complex): 96.1 µM

From patent publication US11242344B2, “(4-hydroxypyrrolidin-2-yl)-heterocyclic compounds and methods of use thereof” (Genentech, Inc., priority 2017, dated 2022)
